We go through one compound from patent US20240197928A1, “SODIUM-DEPENDENT GLUCOSE TRANSPORTER 2 AS A DIAGNOSTIC AND THERAPEUTIC TARGET FOR PRE-MALIGNANT LESIONS” (THE REGENTS OF THE UNIVERSITY OF CALIFORNIA, priority 2019, published 2024).

Assay [1] relates to lung tumors in KPluc mice. The experiment in a line: Therapeutic trials in the KPluc genetically engineered mouse model of LADC. The following applies: vs placebo.
A further assay has as its target SGLT2 (Homo sapiens, UniProt P31639). The following applies: reference 39; cited from earlier work.
Assay [2] has as its system patient-derived xenografts of human LADC. The experiment in a line: Therapeutic trial in patient-derived xenografts of human LADC. It counts as in vivo, NSG mice. The text has this:
Patient-derived xenografts. The tumor samples were obtained from surgically resected specimens after informed consent under the UCLA Lung SPORE (PDX #004 and #011) or the Long Beach Memorial Hospital Institutional Review Board protocol (PDX #013). One of the PDXs (#186) was purchased from the Jackson laboratories. PDXs were established and passaged in NSG mice. NSG mice were procured from the UCLA Radiation Oncology breeding colony. For each mouse, two small pieces of tumor tissue (4 mm^3) were implanted subcutaneously in the flank regions.
Patient-derived xenografts. The mice were randomized in two therapeutic groups (same as for the trials in GEMMs): placebo and canagliflozin (30 mg/kg per day) The number of mice per group was four for PDX #011, eight for PDX #013, three for PDX #004, and five for PDX #186; each mouse was inoculated with two tumors (one tumor on each flank). Some of the tumors of PDX #011 developed soft tissue metastases in the axillary regions, and these were counted as separate tumors. Overall, 38 tumors were included in the placebo and 39 tumors in the canagliflozin group. […] The tumor volumes at 2 weeks were counted as final tumor volumes.
Mice were imaged by Me4FDG and FDG PET/CT before treatment and 2 weeks after starting treatment. […] The mice were sacrificed, and the tumors were analyzed after 1 month of treatment. […]

Assay [3] shares this test system. As to the kind of experiment: Me4FDG and FDG microPET in PDXs before and 2 weeks after the beginning of treatment. Particulars: canagliflozin 30 mg/kg per day. In kind it is in vivo, NSG mice.
Method: For the microPET in PDXs, a subset of the mice (PDXs #004, #013, and #186) received both Me4FDG and FDG PET scans the day before and 2 weeks after the beginning of treatment to evaluate the response of glucose transporter activity to the treatment.
The animals were anesthetized with 1.5% (v/v) isoflurane in oxygen, were given a dose of 100 μCi of Me4FDG or FDG via tail vein injection, and were maintained under anesthesia for 1 hour of unconscious uptake. The mice were then immobilized on the imaging bed and received a 10-min static PET scan followed by a CT scan. Each mouse received two different PET scans with the two tracers (Me4FDG and FDG) on consecutive days to allow for tracer decay. The equipments used were Focus 220 microPET scanner (Concorde Microsystems) and Inveon microPET scanner (Siemens) for the microPET scans and CrumpCAT (UCLA Crump Institute) for the microCT.
The PET data were analyzed with AMIDE software version 1.0.4 (amide.sourceforge.net/) (55). […] The percentage of injected dose for each ROI was calculated by dividing the measured activity in the ROI by the total injected dose, as measured from the PET image by designing an ROI encompassing the whole mouse. […] Briefly, we evaluated the background signal for each mouse by designing a ROI corresponding to the normal lung. We then calculated the CNR for each nodule by using the following formula (31)

The structures appear in SMILES notation.

Take `Cc1ccc([C@@H]2O[C@H](CO)[C@@H](O)[C@H](O)[C@H]2O)cc1Cc1ccc(-c2ccc(F)cc2)s1` [canagliflozin]: in assay [1] (30 mg/kg per day oral gavage from 2 weeks after tumor induction, P<0.001), the “Tumor burden estimated by bioluminescence imaging (BLI)” value is “significantly lower”. Besides, the “onset of tumors (BLI signal up to week 8)” value in assay [1] (30 mg/kg per day oral gavage, P<0.001) is given as “significantly delayed”. Further, the “tumor burden by histological analysis of the lungs and measurement of tumor area” value in assay [1] (at 8 weeks and in the survival cohort, P<0.05) was “significantly lower tumor burden”. Further, the mouse survival result in assay [1] (treated until death, n=15 per group, P=0.0003) is on record as “significantly prolonged”. Also, the “Ki67 proliferation rate in solid LADCs” value in assay [1] is “not in solid LADCs”. In assay [1] (P=0.001), the “Ki67 proliferation rate in premalignant lesions” value is reported as “significantly lower”. Besides, on SGLT2, the “effectiveness as SGLT2 inhibitor compared with dapagliflozin” value is “more effective SGLT2 inhibitor than dapagliflozin”. The “final tumor volumes lower than the control mice” value in assay [2] (30 mg/kg per day oral gavage for 1 month, four PDXs, P=0.003) is reported as “about 47%”. Besides, the “geometric mean ratio of final tumor volumes, treated vs control” value in assay [2] (95% confidence interval 0.36 to 0.80, P=0.003, adjusted for trial and mouse random effects) is listed as 0.53. In addition, the “FDG signal from day 0 to day 14” value in assay [3] is “did not significantly change”. Besides, the “Me4FDG uptake from day 0 to day 14” value in assay [3] (P<0.001) is on record as “significantly reduced”.
